From ChEMBL document CHEMBL1147415, “Inhibition kinetics of carba- and C-fucosyl analogues of GDP-fucose against fucosyltransferase V: implication for the reaction mechanism” (Bioorg Med Chem Lett, 2004)

Assays:
[1] = target: T1, 4-galactosyl-N-acetylglucosaminide 3-alpha-L-fucosyltransferase FUT5 (Homo sapiens, UniProt Q11128); assay: Inhibition of Fucosyltransferase 5 by the compound was evaluated; Competitive inhibition
T1 sequence (Q11128 whole entry): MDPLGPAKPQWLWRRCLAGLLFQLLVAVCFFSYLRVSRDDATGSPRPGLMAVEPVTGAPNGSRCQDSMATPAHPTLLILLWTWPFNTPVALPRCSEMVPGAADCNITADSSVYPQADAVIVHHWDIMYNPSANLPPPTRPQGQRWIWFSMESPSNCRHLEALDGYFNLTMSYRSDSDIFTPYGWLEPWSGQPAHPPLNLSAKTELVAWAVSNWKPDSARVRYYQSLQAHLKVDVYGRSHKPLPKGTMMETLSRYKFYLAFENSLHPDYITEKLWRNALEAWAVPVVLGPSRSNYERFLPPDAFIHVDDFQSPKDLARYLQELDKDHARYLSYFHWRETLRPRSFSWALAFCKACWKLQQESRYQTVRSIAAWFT

[2] = target: T1, 4-galactosyl-N-acetylglucosaminide 3-alpha-L-fucosyltransferase FUT5; assay: Inhibition of Fucosyltransferase 5 by the compound was evaluated; Weak competitive inhibition

| SMILES | Ki [1] [µM] | Ki [2] [µM] |
| --- | --- | --- |
| CC1CC(OP(=O)(O)OP(=O)(O)OC[C@H]2OC(n3cnc4c(O)nc(N)nc43)[C@H](O)[C@@H]2O)C(O)C(O)C1O (some centres not stated) | 67.1 | – |
| CC1OC(CP(=O)(O)OP(=O)(O)OC[C@H]2OC(n3cnc4c(=O)[nH]c(N)nc43)[C@H](O)[C@@H]2O)C(O)C(O)C1O (some centres not stated) | – | 889 |
